Laboratory results from patent US6492174B1, “Methods of initiating embryogenic cultures in plants” (Institute of Paper Science & Technology, priority 2000, dated 2002).

Assays:
[1] = tested on: Loblolly pine megagametophytes; experiment: Loblolly pine extrusion and initiation on solid media #945 with brassinolide, eight weeks; type: cell-based
Experimental: In each replicate set of ten explants, the frequency of extrusion was measured as the number of extrusions per ten megagametophytes. A successful extrusion was scored where a filamentous mass of tissue that had emerged from the megagametophyte was clearly visible. Initiation was also scored at the end of the 8th week. In each replicate set of ten explants, the frequency of initiation was recorded as the number of successful initiations out of the ten megagametophytes. A successful initiation was scored where the extruded tissue had clearly proliferated and at least one somatic embryo was visible. Often, visualization was aided by the fact that the zygotic tissue was brownish while new somatic embryos were whitish and translucent. Also, somatic embryos could often be seen growing directly from zygotic embryos.
This experiment measured the effects of varying concentrations of brassinolide on extrusion and initiation in Loblolly pine. The explants in this experiment were megagametophytes isolated from cone collections from four open-pollinated trees, representing a multiplicity of genotypes. The seeds contained Stage 2-4 zygotic embryos. Seeds were sterilized as described in Example 1. Seed coats were split and the megagametophytes were isolated by removing integuments and nucellus. Isolated megagametophytes were placed on solid media. […] The treatment media consisted of media #945 with added brassinolide varying from 0.005 to 0.1 μM (Table 10). The experiment consisted of three replications per treatment, per genotype.
Initiation frequency was increased by the addition of brassinolide at all concentrations (Table 12). There was no clear concentration effect within the tested range. […] One of skill in the art could empirically determine the upper and lower effective concentration of brassinolide which is effective in promoting initiation.

[2] = tested on: Loblolly pine megagametophytes; experiment: Loblolly pine extrusion and initiation on solid media #1042 (no ABA) with brassinolide, eight weeks; type: cell-based
Experimental: The promotion of extrusion and initiation in Example 4 was obtained on media containing both brassinolide and abscisic acid (ABA). ABA is known in the art to enhance initiation. This experiment was conducted to determine if brassinolide will promote initiation independently of ABA. The explants were megagametophytes from summer cone collections from four individual trees, each representing a distinct genotype. The seeds contained Stage 2-4 zygotic embryos. Megagametophytes were excised from sterilized seeds, as described in Example 4.
The control media was solid media #1042, which contains no ABA or brassinolide (Table 47). Treatment media were composed of #1042 plus 0, 0.025, 0.10 or 0.25 μM brassinolide (Table 13). While still liquid, 2 ml media was poured into wells on a culture well plate and allowed to solidify. […] Each replication consisted of ten megagametophytes in adjacent wells on a single well plate. Plates were wrapped with PARAFILM and incubated at 23-24° C. in the dark.
Both extrusion (Table 14) and initiation (Table 15) frequencies were higher in the brassinolide treatments than in the control. There was no clear brassinolide concentration effect within the tested range. […] One of skill in the art can empirically determine the optimal effective upper and lower brassinolide concentration limits for solid media.

SMILES: CC(C)[C@H](C)[C@@H](O)[C@H](O)[C@@H](C)[C@H]1CC[C@H]2[C@@H]3COC(=O)[C@H]4C[C@H](O)[C@H](O)C[C@]4(C)[C@H]3CC[C@]12C [brassinolide]
- Initiation frequency vs control ([1]; brassinolide at all concentrations (0.005 to 0.1 μM)): increased
- % of Megagametophytes Extruding ([1]; genotype FC, 0.005 μM Br): 40.0 (5.8) %
- % of Megagametophytes Initiating ([1]; genotype FC, 0.005 μM Br): 0 (0) %
- % of Megagametophytes Extruding ([1]; genotype FC, 0.01 μM Br): 20.0 (5.8) %
- % of Megagametophytes Initiating ([1]; genotype FC, 0.01 μM Br): 6.7 (3.3) %
- % of Megagametophytes Extruding ([1]; genotype FC, 0.025 μM Br): 40.0 (5.8) %
- % of Megagametophytes Initiating ([1]; genotype FC, 0.025 μM Br): 0 (0) %
- % of Megagametophytes Extruding ([1]; genotype FC, 0.05 μM Br): 26.7 (3.3) %
- % of Megagametophytes Initiating ([1]; genotype FC, 0.05 μM Br): 0 (0) %
- % of Megagametophytes Extruding ([1]; genotype FC, 0.1 μM Br): 31.8 (16.5) %
- % of Megagametophytes Initiating ([1]; genotype FC, 0.1 μM Br): 3.7 (3.7) %
- % of Megagametophytes Extruding ([1]; genotype FT, 0.005 μM Br): 96.7 (3.3) %
- % of Megagametophytes Initiating ([1]; genotype FT, 0.005 μM Br): 53.3 (12.0) %
- % of Megagametophytes Extruding ([1]; genotype FT, 0.01 μM Br): 86.7 (8.8) %
- % of Megagametophytes Initiating ([1]; genotype FT, 0.01 μM Br): 43.3 (16.7) %
- % of Megagametophytes Extruding ([1]; genotype FT, 0.025 μM Br): 93.3 (6.7) %
- % of Megagametophytes Initiating ([1]; genotype FT, 0.025 μM Br): 46.7 (12.0) %
- % of Megagametophytes Extruding ([1]; genotype FT, 0.05 μM Br): 93.3 (3.3) %
- % of Megagametophytes Initiating ([1]; genotype FT, 0.05 μM Br): 53.3 (8.8) %
- % of Megagametophytes Extruding ([1]; genotype FT, 0.1 μM Br): 86.7 (3.3) %
- % of Megagametophytes Initiating ([1]; genotype FT, 0.1 μM Br): 50 (3.3) %
- % of Megagametophytes Extruding ([1]; genotype FW, 0.005 μM Br): 83.3 (8.8) %
- % of Megagametophytes Initiating ([1]; genotype FW, 0.005 μM Br): 20 (5.8) %
- % of Megagametophytes Extruding ([1]; genotype FW, 0.01 μM Br): 50.0 (10.0) %
- % of Megagametophytes Initiating ([1]; genotype FW, 0.01 μM Br): 3.3 (3.3) %
- % of Megagametophytes Extruding ([1]; genotype FW, 0.025 μM Br): 64.8 (13.4) %
- % of Megagametophytes Initiating ([1]; genotype FW, 0.025 μM Br): 20.7 (11.6) %
- % of Megagametophytes Extruding ([1]; genotype FW, 0.05 μM Br): 70.0 (11.5) %
- % of Megagametophytes Initiating ([1]; genotype FW, 0.05 μM Br): 13.3 (8.8) %
- % of Megagametophytes Extruding ([1]; genotype FW, 0.1 μM Br): 73.3 (8.8) %
- % of Megagametophytes Initiating ([1]; genotype FW, 0.1 μM Br): 30 (5.8) %
- % of Megagametophytes Extruding ([1]; genotype FX, 0.005 μM Br): 53.3 (8.8) %
- % of Megagametophytes Initiating ([1]; genotype FX, 0.005 μM Br): 26.7 (8.8) %
- % of Megagametophytes Extruding ([1]; genotype FX, 0.01 μM Br): 63.3 (14.5) %
- % of Megagametophytes Initiating ([1]; genotype FX, 0.01 μM Br): 33.3 (12.0) %
- % of Megagametophytes Extruding ([1]; genotype FX, 0.025 μM Br): 70.0 (5.8) %
- % of Megagametophytes Initiating ([1]; genotype FX, 0.025 μM Br): 23.3 (3.3) %
- % of Megagametophytes Extruding ([1]; genotype FX, 0.05 μM Br): 73.3 (8.8) %
- % of Megagametophytes Initiating ([1]; genotype FX, 0.05 μM Br): 43.3 (6.7) %
- % of Megagametophytes Extruding ([1]; genotype FX, 0.1 μM Br): 76.7 (8.8) %
- % of Megagametophytes Initiating ([1]; genotype FX, 0.1 μM Br): 36.7 (8.8) %
- concentrations at which brassinolide was effectively used ([1]; in our media): 0.005 to 0.25 µM
- % of Megagametophytes Extruding ([1]; total, 0.005 μM Br): 68.3%
- % of Megagametophytes Initiating ([1]; total, 0.005 μM Br): 25.0%
- % of Megagametophytes Extruding ([1]; total, 0.01 μM Br): 55.0%
- % of Megagametophytes Initiating ([1]; total, 0.01 μM Br): 21.7%
- % of Megagametophytes Extruding ([1]; total, 0.025 μM Br): 67.0%
- % of Megagametophytes Initiating ([1]; total, 0.025 μM Br): 22.7%
- % of Megagametophytes Extruding ([1]; total, 0.05 μM Br): 65.8%
- % of Megagametophytes Initiating ([1]; total, 0.05 μM Br): 27.5%
- % of Megagametophytes Extruding ([1]; total, 0.1 μM Br): 67.1%
- % of Megagametophytes Initiating ([1]; total, 0.1 μM Br): 30.1%
- extrusion and initiation frequencies vs control ([2]; 0.025, 0.10 or 0.25 μM brassinolide, absence of ABA): higher
- % of Megagametophytes Extruding ([2]; genotype 5-1207, 0.025 μM Br): 38.3 (15.9) %
- % of Megagametophytes Initiating ([2]; genotype 5-1207, 0.025 μM Br): 27.5 (16.3) %
- % of Megagametophytes Extruding ([2]; genotype 5-1207, 0.10 μM Br): 30.0 (13.3) %
- % of Megagametophytes Initiating ([2]; genotype 5-1207, 0.10 μM Br): 20 (15.3) %
- % of Megagametophytes Extruding ([2]; genotype 5-1207, 0.25 μM Br): 20.0 (10.0) %
- % of Megagametophytes Initiating ([2]; genotype 5-1207, 0.25 μM Br): 16.7 (8.8) %
- % of Megagametophytes Extruding ([2]; genotype 7-1051, 0.025 μM Br): 43.3 (8.8) %
- % of Megagametophytes Initiating ([2]; genotype 7-1051, 0.025 μM Br): 20 (20.0) %
- % of Megagametophytes Extruding ([2]; genotype 7-1051, 0.10 μM Br): 46.7 (13.3) %
- % of Megagametophytes Initiating ([2]; genotype 7-1051, 0.10 μM Br): 26.7 (8.8) %
- % of Megagametophytes Extruding ([2]; genotype 7-1051, 0.25 μM Br): 53.3 (12.0) %
- % of Megagametophytes Initiating ([2]; genotype 7-1051, 0.25 μM Br): 16.7 (8.8) %
- % of Megagametophytes Extruding ([2]; genotype 11-1055, 0.025 μM Br): 66.7 (3.3) %
- % of Megagametophytes Initiating ([2]; genotype 11-1055, 0.025 μM Br): 53.3 (6.7) %
- % of Megagametophytes Extruding ([2]; genotype 11-1055, 0.10 μM Br): 63.3 (13.3) %
- % of Megagametophytes Initiating ([2]; genotype 11-1055, 0.10 μM Br): 46.7 (14.5) %
- % of Megagametophytes Extruding ([2]; genotype 11-1055, 0.25 μM Br): 70.0 (11.5) %
- % of Megagametophytes Initiating ([2]; genotype 11-1055, 0.25 μM Br): 53.3 (8.8) %
- % of Megagametophytes Extruding ([2]; genotype 11-1507, 0.025 μM Br): 26.7 (6.7) %
- % of Megagametophytes Initiating ([2]; genotype 11-1507, 0.025 μM Br): 13.3 (3.3) %
- % of Megagametophytes Extruding ([2]; genotype 11-1507, 0.10 μM Br): 36.7 (3.3) %
- % of Megagametophytes Initiating ([2]; genotype 11-1507, 0.10 μM Br): 16.7 (8.8) %
- % of Megagametophytes Extruding ([2]; genotype 11-1507, 0.25 μM Br): 23.3 (3.3) %
- % of Megagametophytes Initiating ([2]; genotype 11-1507, 0.25 μM Br): 13.3 (3.3) %
- % of Megagametophytes Extruding ([2]; total, 0.025 μM Br): 43.8%
- % of Megagametophytes Initiating ([2]; total, 0.025 μM Br): 28.5%
- % of Megagametophytes Extruding ([2]; total, 0.10 μM Br): 44.2%
- % of Megagametophytes Initiating ([2]; total, 0.10 μM Br): 27.5%
- % of Megagametophytes Extruding ([2]; total, 0.25 μM Br): 41.7%
- % of Megagametophytes Initiating ([2]; total, 0.25 μM Br): 25.0%
